Drawing on patent publication US8592581B2, “Trisubstituted purine derivatives” (Cyclacel Limited, priority 2007, dated 2013), this text covers IC50 for one molecule.

For assay [1], the system named is MDA-MB-436. In words: Alamar blue cytotoxicity assay MDA-MB-436. The assay is classed as cell-based. Particulars: Homo sapiens, 72 hours, read-out: cellular cytotoxicity IC50 MDA-MB-436. As to the method: (§1) In order to determine the cellular potency of the compounds, the cytotoxicity of each compound was determined against a range of cell lines. Standard cytotoxicity methods were performed as follows: cells were seeded in 96-well plates appropriately for their doubling time (2-5000 cells per well) in RPMI or DMEM media containing 10% FCS and incubated overnight at 37° C., 5% CO2. The media was removed and 100 μl fresh media containing increasing concentrations of appropriate compound was added and the cells incubated for 72 hours at 37° C., 5% CO2. A 10% stock of alamar blue (Roche, Lewes, United Kingdom) was prepared in medium and 100 μl added to the cells which were incubated for 2 hours. Absorbance was measured on the Wallac Victor 2 1420 multi-label counter at 544-595 nm.

Assay [2] relates to MESSA-Dx5. In words: Alamar blue cytotoxicity assay MESSA-Dx5. It counts as cell-based. The note with it: Homo sapiens, MES-SA/Dx5; 72 hours; read-out: cellular cytotoxicity IC50 MESSA-Dx5. As to the method: as §1
Assay [3] deals with CDK2/cyclin E (Homo sapiens (Human), UniProt P24941). In words: In-vitro recombinant kinase assay CDK2/cyclin E. It counts as biochemical. Particulars: Table 2; average of duplicate points; read-out: CDK2/Cyclin E Average IC50. The method, then: (§2) To evaluate the in-vitro kinase potency of the compounds, they were screened against CDK 2 and CDK9. Kinase assays were performed in 96-well plates using recombinant CDK/cyclins generated at Cyclacel. Ltd Dundee, UK. CDK2 and CDK9 assays were performed in a total volume of 25 μl in assay buffer (25 mM b-glycerophosphate, 20 mM MOPS, 5 mM EGTA, 1 mM DTT and 1 mM NaVO3, pH 7.4), into which were added 2-4 μg of active enzyme with appropriate substrates (purified histone H1 for CDK2/cyclin E, and CDK2/cyclin A, biotinyl-Ahx-(YSPTSPS)4 for CDK9/cyclin T1). […] CDK2 reactions were stopped by addition of 25 μl of 75 mM phosphoric acid, followed by filtration through P81 filterplates (Whatman Polyfiltronics, Kent, UK). For CDK9, the reaction was stopped by addition of 25 μl of 75 mM phosphoric acid, then 5 μl of 10 mg/ml avidin was added to each well and further incubated for 2 min followed by filtration as per CDK2 assay. After washing 3 times with 75 mM orthophosphoric acid, plates were dried, scintillant added and incorporated radioactivity measured in a scintillation counter (TopCount, Packard Instruments, Pangbourne, Berks, UK). Compounds for kinase assay were made up as 10 mM stocks in DMSO and diluted into 10% DMSO in assay buffer.
as §2

The target in assay [4] is CYP2C19 (Homo sapiens (Human), UniProt P33261). In words: CYP2C19 inhibition, human liver microsomes, mephenyloin. The assay is classed as in vitro ADME. The method, then: Six test compound concentrations (0.05, 0.25, 0.5, 2.5, 5, 25 μM in DMSO; final DMSO concentration=0.25%) were incubated with human liver microsomes (0.5 mg/mL) and NADPH (1 mM) in the presence of the probe substrate mephenyloin (25 μM) for 60 min at 37° C. The selective CYP2C19 inhibitor, tranylcypromine, was screened alongside the test compounds as a positive control.
Sequence of CYP2C19 (P33261 whole entry): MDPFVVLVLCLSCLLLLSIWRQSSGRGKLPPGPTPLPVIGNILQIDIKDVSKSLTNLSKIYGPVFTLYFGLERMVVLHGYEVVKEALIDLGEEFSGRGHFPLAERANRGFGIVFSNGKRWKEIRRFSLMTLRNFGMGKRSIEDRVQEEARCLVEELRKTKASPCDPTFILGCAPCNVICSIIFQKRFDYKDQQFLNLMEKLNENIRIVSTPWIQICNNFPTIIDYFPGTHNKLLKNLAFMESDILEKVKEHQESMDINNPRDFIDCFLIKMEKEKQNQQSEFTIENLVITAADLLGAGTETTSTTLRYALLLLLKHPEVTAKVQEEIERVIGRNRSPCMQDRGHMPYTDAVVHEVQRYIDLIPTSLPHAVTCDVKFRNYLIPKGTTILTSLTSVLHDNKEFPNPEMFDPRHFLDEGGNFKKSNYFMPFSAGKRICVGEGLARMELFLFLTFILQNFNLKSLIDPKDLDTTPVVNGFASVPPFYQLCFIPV
(§3) For the CYP1A incubations, the reactions were terminated by the addition of methanol, and the formation of the metabolite, resorufin, was monitored by fluorescence (excitation wavelength=535 nm, emission wavelength=595 nm). For the CYP2C9, CYP2C19, CYP2D6, and CYP3A4 incubations, the reactions were terminated by the addition of methanol containing internal standard. The samples were then centrifuged, and the supernatants were combined, for the simultaneous analysis of 4-hydroxytolbutamide, 4-hydroxymephenyloin, dextrorphan, and 1-hydroxymidazolam plus internal standard by LC-MS/MS using generic LC-MS/MS conditions. Formic acid in deionised water (final concentration=0.1%) was added to the final sample prior to analysis.

Assay [5] concerns the target CYP2C9 (Homo sapiens (Human), UniProt P11712). In words: CYP2C9 inhibition, human liver microsomes, tolbutamide. The assay is classed as in vitro ADME. As to the method:
Six test compound concentrations (0.05, 0.25, 0.5, 2.5, 5, 25 μM in DMSO; final DMSO concentration=0.25%) were incubated with human liver microsomes (1 mg/mL) and NADPH (1 mM) in the presence of the probe substrate tolbutamide (120 μM) for 60 min at 37° C. The selective CYP2C9 inhibitor, sulphaphenazole, was screened alongside the test compounds as a positive control.
as §3

Assay [6] has as its system H1650. In words: Alamar blue cytotoxicity assay H1650. The assay is classed as cell-based. The note with it: Homo sapiens, NCI-H1650; 72 hours; read-out: cellular cytotoxicity IC50 H1650. The method, then: as §1
In assay [7] the test system is Colo205. In words: Alamar blue cytotoxicity assay Colo205. The note with it: Homo sapiens, COLO 205; 72 hours; read-out: cellular cytotoxicity IC50 Colo205. The assay is classed as cell-based. As to the method:
as §1

For assay [8], the system named is H2052. In words: Alamar blue cytotoxicity assay H2052. It counts as cell-based. Particulars: Homo sapiens, NCI-H2052; 72 hours; read-out: cellular cytotoxicity IC50 H2052. As to the method:
as §1

Where only a bound is given, the exact number is not on record here.

Sequence of CYP2C9 (P11712 whole entry): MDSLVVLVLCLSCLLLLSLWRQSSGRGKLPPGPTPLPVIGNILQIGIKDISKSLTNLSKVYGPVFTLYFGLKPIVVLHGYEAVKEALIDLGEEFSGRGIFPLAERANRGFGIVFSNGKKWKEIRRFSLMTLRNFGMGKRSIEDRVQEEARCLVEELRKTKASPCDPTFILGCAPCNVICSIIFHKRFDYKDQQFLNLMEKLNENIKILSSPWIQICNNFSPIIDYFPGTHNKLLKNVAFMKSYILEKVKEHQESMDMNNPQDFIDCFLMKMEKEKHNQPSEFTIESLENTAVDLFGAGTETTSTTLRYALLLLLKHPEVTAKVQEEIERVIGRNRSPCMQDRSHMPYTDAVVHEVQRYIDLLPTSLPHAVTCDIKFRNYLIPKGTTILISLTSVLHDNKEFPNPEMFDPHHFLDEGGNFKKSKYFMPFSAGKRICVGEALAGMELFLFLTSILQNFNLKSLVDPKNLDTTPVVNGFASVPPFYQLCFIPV

For the molecule `CC[C@H](Nc1nc(NCc2cnc(C)cc2C)c2ncn(C(C)C)c2n1)[C@@H](C)O` [Compound [1]], the IC50 was 0.44 µM in assay [1]; 1.21 µM in assay [2]; 0.02 µM in assay [3]; above 25 µM in assay [4]; 23.8 µM in assay [5]; 0.46 µM in assay [6]. Besides, the IC50 in assay [7] turned out to be 0.31 µM; in assay [8], 0.29 µM.
